Data: patent US5268389A, “Thiocarboxylate ester compounds compositions containing the same” (priority 1990, dated 1993)
Values joined by “and” are separate entries in the source; they are usually repeats but may differ in a detail not shown here. Identical values can stand only once. Like-named read-outs stand apart in the source and are kept apart here.

Tested on: HIV
Assay: Reduction of HIV cytopathic effect, CEM-IW protocol
Type: cell-based
Conditions: asterisk: CEMIW protocol; for EC50: CEM cells, drug added before virus, read-out: Activity of Anti-HIV Compounds (EC50), CEM-IW; for Activity class of Anti-HIV Compounds, CEM-IW: inhibition of viral cytopathic effect
Protocol: The compounds of Examples were tested for anti-AIDS activity by subjecting them to standard National Cancer Institute ("NCI") in vitro screening procedures. In carrying out each test, two blanks were run. In the first blank, HIV and a culture of a standard human cell line were incubated together to measure the infectivity of the virus. The viability of the cells was measured after holding for six or seven days. In an "effective" test, most cells were infected before the holding period was complete.
Finally, the protective effects of the test compounds were measured. Each cell culture and test compound were incubated with the virus and the viability of the cells was measured as a function of compound concentration after holding for six or seven days. If the compound is active in protecting the cells against the virus, there is typically low cell viability until an effective concentration of the test compound is reached. At this point, cell viability increases steadily toward 100% unless the toxic effect of the compound (as measured in the second blank) takes effect. The concentration of the test compound that results in 50% "control," i.e., a 50% reduction of the viral cytopathic effect, is defined as the EC 50. The therapeutic index TI50 is calculated as IC50/EC50.
Values of test compound concentrations required for between 20 and 50% reduction of the viral cytopathic effect can also be determined. Such compounds are classified as moderately active.
The compounds were tested to determine their reduction of HIV cytopathic effect on the human cell lines CEM and MT2. Tests were done by innoculating these cell lines either with free HIV (V) or with a virus Previously cultured with host cells (C). Thus, in Table III the designation CEMV means CEM line cells innoculated with free virus and MT2C means MT2 cells innoculated with cultured viral infected MT2 cells. In some cases the compound was also tested on a cell line together with a sub-effective amount of the known HIV viricide AZT. This is done to test possible synergistic effects. Such a test on the CEM line is denoted CEMZ.
The aforementioned identifiers are used when a batch was prepared and samples inserted into the wells. In procedures calling for the addition of the drug (or no drug) and the CEM uninfected cells to each well, followed by the subsequent addition of the HIV virus, the protocol is designated as CEM-IW.
4) The tetrazolium salt, XTT, is added to all wells, and cultures are incubated to allow formazan color development by viable cells.
5) Individual wells are analyzed spectrophotometrically to quantity formazan production, and in addition are viewed microscopically for detection of viable cells and confirmation of protective activity.
6) Drug-treated virus-infected cells are compared with drug-treated non-infected cells and with other appropriate controls (untreated infected and untreated non-infected cells, drug-containing wells without cells, etc.) on the same plate.
Asterisks indicate the CEMIW protocol.

[1] = Human immunodeficiency virus 1, CCRF-CEM

Row | SMILES | EC50 [1] | EC50 | Activity class of Anti-HIV Compounds, CEM-IW
1 | CCOC(=S)Nc1ccc(Cl)c(C(=O)OC(C)C)c1 [Compound 33] | 660 nM | 680 nM and 730 nM | 
2 | CCCOC(=S)Nc1ccc(Cl)c(C(=O)OC(C)C)c1 [Compound 35] | 240 nM | 180 nM and 200 nM | 
3 | CCCCCOC(=S)Nc1ccc(Cl)c(C(=O)OC(C)C)c1 [Compound 36] | 1040 nM | 1380 nM and 1320 nM and 890 nM | 
4 | C=CCOC(=S)Nc1ccc(Cl)c(C(=O)OC(C)C)c1 [Compound 37] | 320 nM | 200 nM | 
5 | CC(C)OC(=O)c1cc(NC(=S)OC2C=CCCC2)ccc1Cl (stereo not drawn) [Compound 39] | 1090 nM | 1470 nM and 1750 nM and 1460 nM | 
6 | CC(C)OC(=O)c1cc(NC(=S)OCC2CCCO2)ccc1Cl (stereo not drawn) [Compound 43] |  |  | MA (moderate activity (MA), that is, inhibition between approximately 20 and 50%)
7 | CCCSC(=Nc1ccc(Cl)c(C(=O)OC(C)C)c1)OC(C)C [Compound 52] | 2440 nM | 2470 nM and 1940 nM | 
8 | Cc1oc(C)c(C(=S)Nc2ccc(Cl)c(C(=O)OC(C)C)c2)c1C [Compound 58, 1-Methylethyl 2-chloro-5-[(2,4,5-trimethyl 3-furanyl)thioxomethyl]amino1benzoate] | 870 nM | 750 nM and 1060 nM and 900 nM | 
9 | Cc1occc1C(=S)Nc1ccc(Cl)c(C(=O)OC(C)C)c1 [Compound 59, 1-methylethyl 2-chloro-5-[(2-methyl-3-furanyl)thioxomethyl]amino benzoate] | 43 nM | 37 nM | 
10 | CC(C)OC(=O)c1cc(NC(=S)c2ccccc2)ccc1Cl [Compound 61, Benzoic acid, 2-chloro-5-(phenylthioxomethyl) amino-, 1-methylethyl ester] | 390 nM | 620 nM and 420 nM and 450 nM | 
11 | COc1ccccc1C(=S)Nc1ccc(Cl)c(C(=O)OC(C)C)c1 [Compound 65] | 476 nM | 404 nM and 588 nM and 509 nM | 
12 | CC(C)OC(=O)c1cc(NC(=O)c2ccccc2I)ccc1Cl [Compound 82, 1-Methylethyl 2-chloro-5-[(2-iodobenzoyl)amino]benzoate] | 2670 nM | 2560 nM and 2150 nM and 2880 nM | 
13 | COc1ccccc1C(=O)Nc1ccc(Cl)c(C(=O)OCC2CCCO2)c1 (stereo not drawn) [Compound 83, Tetrahydro-2-furanylmethyl 2-chloro-5-[(2-methoxybenzoyl)-amino]benzoate] |  |  | MA (moderate activity (MA), that is, inhibition between approximately 20 and 50%)
14 | COc1ccccc1NC(=O)Nc1ccc(Cl)c(C(=O)OC(C)C)c1 [Compound 99] |  |  | MA (moderate activity (MA), that is, inhibition between approximately 20 and 50%)
15 | CC(C)OC(=O)c1cc(NC(=O)OC2CCCCC2)ccc1Cl [Compound 102] |  |  | MA (moderate activity (MA), that is, inhibition between approximately 20 and 50%)
16 | CC1=C(C(=O)Nc2ccc(O)c(C(=O)OC(C)C)c2)SCCO1 [Compound 112, 1-Methylethyl 5-[[(5,6-dihydro-2-methyl-1,4-oxathiin-3-yl)-carbonyl]amino]-2-hydroxybenzoate] |  |  | MA (moderate activity (MA), that is, inhibition between approximately 20 and 50%)
17 | CC(=O)Nc1ccccc1C(=O)Nc1ccc(Cl)c(C(=O)OC(C)C)c1 [Compound 114, 1-Methylethyl 5-[(2-acetamidobenzoyl)amino]-2-chlorobenzoate] |  |  | MA (moderate activity (MA), that is, inhibition between approximately 20 and 50%)
18 | CC(C)OC(=O)c1cc(NC(=S)OCc2ccccc2)ccc1Cl [Compound 117] |  |  | MA (moderate activity (MA), that is, inhibition between approximately 20 and 50%)
19 | COC(=O)c1ccccc1S(=O)(=O)NC(=O)Nc1ccc(Cl)c(C(=O)OC(C)C)c1 [Compound 130] |  |  | MA (moderate activity (MA), that is, inhibition between approximately 20 and 50%)
20 | CC(C)OC(=O)c1cc(NC(=NS(=O)(=O)c2ccccc2)c2ccccc2F)ccc1Cl [Compound 131] |  |  | MA (moderate activity (MA), that is, inhibition between approximately 20 and 50%)
21 | CCOC(=O)c1cc(NC(=S)OC(C)C)ccc1SC [Compound 145] | 260 nM | 373 nM and 243 nM and 422 nM | 
